# Patent US20250346563A1, “HISTONE DEACETYLASE 6 INHIBITORS AND METHOD FOR TREATING NEUROPATHIC PAIN” (Taipei Medical University, priority 2019, published 2025)
# Key:
# [1] = test system: multiple myeloma cells (RPMI8226, U266, NCI-H929); experiment: Apoptosis in multiple myeloma cells, combined with bortezomib (FACScan, propidium iodide); assay type: cell-based, human; conditions: RPMI8226, U266, and NCI-H929, 24 hours
# Description: A study was conducted to evaluate the effect of a compound of Formula (I) combined with bortezomib in inducing apoptosis in multiple myeloma cells.
# To detect cell cycle progression, cells were incubated with or without the indicated agent for 24 hours, washed twice with ice-cold PBS, collected by centrifugation, and fixed in 70% (v/v) ethanol for 2 hours at −20° C. They were subsequently incubated for 30 minutes at room temperature with 0.2 mL of deoxyribonucleic acid (DNA) extraction buffer (0.2 M Na2HPO4 and 0.1 M citric acid buffer, pH 7.8), re-suspended in 1 mL of propidium iodide staining buffer (0.1% Triton X-100, 100 μg/mL of RNase A, and 80 μg/mL of propidium iodide in PBS), incubated at 37° C. for 30 minutes in darkness, sorted by FACScan, and analyzed using CellQuest software (BD Biosciences).
# The study was performed according to the protocol reported in Hsieh et al., Cell Death and Disease, 2014 April; 5:e1166.
# [2] = test system: IL-6 expression; experiment: LPS-induced IL-6 expression in RAW 264.7 cells (ELISA); assay type: cell-based, mouse; conditions: 10 μM, LPS 24 hr
# Description: FIG. 1. Effects of Compound 28 on LPS-induced IL-6 protein expression. The cells were induced with 1 µg/mL LPS and various concentrations of Compound 28 for 24 hr. The levels of IL-6 were determined by ELISA kit.
# In this example, we tested that whether Compound 28 can attenuate LPS-induced inflammation.
# Cells. The RAW 264.7 cell line derived from mouse macrophage were maintained in Dulbecco's modified Eagle's medium (DMEM; GIBCO, Carlsbad, CA, USA) supplemented with 10% heat-inactivated fetal bovine serum (FBS), 100 μg/mL streptomycin, and 100 IU/mL penicillin.
# Measurement of IL-6 expression. RAW cells were cultured onto 6 wells plate. After reaching 80% confluence, cells were pretreated with Compound 28 in 1% FBS medium for 30 min and then incubated with LPS for 24 hr. The levels of IL-6 were determined by IL-6 ELISA kit (BD Bioscience, San Jose, CA, USA). Briefly, 50 μL conditioned medium and 50 μL Assay Diluent were added to each well for 2 hours at room temperature. After washed five times, 100 μL Working Detector was added and incubated for 1 hour. After repetitive washing, 100 μL TMB-Substrate Solution was added for 30 minutes. Finally, 50 μL Stop Solution was added and the optical density was determined using microplate reader set at 450 nm.
# [3] = test system: rat Taxol-induced neuropathic pain model; experiment: Thermal hyperalgesia in rat Taxol-induced neuropathic pain model; conditions: for thermal hyperalgesia (heat pain threshold) vs vehicle: p<0.05
# Description: Gabapentin (100 mg/kg), was administrated via IP injection on Days 14, 21, and 27 (total three doses) by using the same cohort of animals in vehicle control group. Thermal hyperalgesia was assessed prior to Taxol challenge (Day 0; Pre-Taxol) and compound administration (Day 13; Pre-dose) and at 1.5 hours after (second) compound administration on Days 14, 17, 21, 24, and 27 (Post-dose). All values represented mean±SEM in individual groups. One-way ANOVA followed by Dunnett's test was applied for comparison between vehicle control and test article groups. p<0.05 is considered significant.
# Animal. Male Sprague-Dawley (SD) rats weighing 220-260 g (at arrival) were provided by BioLasco Taiwan (under Charles River Laboratories Technology Licensee).
# Chemotherapy induced neuropathy. Male SD rats weighing 240±20 grams was employed. Taxol (2 mg/kg) was injected IP on Days 1, 3, 5 and 7 with a total cumulative dose of 8 mg/kg (qod×4). During the course of the study, the animals were housed socially under constant temperature, humidity and a 12-hour light-dark cycle.
# The reference compound, gabapentin (100 mg/kg, IP), was administrated on Days 14, 21, and 27 (total three doses) by using the same cohort of animals in vehicle control group.
# The animals were tested prior to study inclusion for thermal hyperalgesia on Day 13. Thermal hyperalgesia was measured at 1.5 hour after dosing of vehicle or test article on Days 14, 17, 21, 24 and 27 by using the IITC Plantar Test Apparatus (IITC Model-336G; IITC Inc., USA). […] A light beam under the floor was aimed at the plantar surface of the left hind paw. The time was measured automatically when the paw is withdrawn away from the thermal stimulus. A cut-off latency of 23 sec was imposed. The latency to withdrawal was obtained for each rat and defined as the heat pain threshold.
# All values represented mean±SEM in individual groups. One-way ANOVA followed by Dunnett's test was applied for comparison between vehicle control and test article groups. p<0.05 is considered significant.
# [4] = test system: scopolamine-treated rats; experiment: Elevated plus maze test, scopolamine-treated rats; assay type: in vivo; conditions: by gavage twice daily for seven days; scopolamine 1.5 mg/kg ip
# Description: (§1) Compound 12, Compound 28, suberanilohydroxamic acid (50 mg/kg) or vehicle was given to rats by gavage twice daily for seven days prior to behavioral experiments. On the day conducting a behavior assessment, rats in all groups except the control group were administered scopolamine (1.5 mg/kg) by intraperitoneal injection for 30 minutes before the assessment, then a water maze test or an elevated plus maze test was performed.
# [5] = test system: scopolamine-treated rats; experiment: Water maze test, scopolamine-treated rats; assay type: in vivo; conditions: by gavage twice daily for seven days; scopolamine 1.5 mg/kg ip
# Description: as §1
compound,measurement,setting,value
"O=C(NO)c1ccc(CNc2cccc3cccnc23)cc1 [Compound 28, N-hydroxy-4-((quinolin-8-ylamino)methyl)benzamide]",apoptosis induction,[1],synergistically induced apoptosis
same,LPS-induced IL-6 expression,[2],significantly reduce LPS-induced IL-6 expression
same,thermal hyperalgesia (heat pain threshold) vs vehicle,"[3]; 50 mg/kg PO bid x14, Days 21 and 24",markedly reduced the thermal pain
same,thermal hyperalgesia (heat pain threshold) vs vehicle,"[3]; 50 mg/kg PO qd x14, Days 14 and 17",significant analgesic effects
same,thermal hyperalgesia (heat pain threshold) vs vehicle,"[3]; 50 mg/kg PO qd x14, Days 21 and 24",markedly reduced the thermal pain
same,transfer latency time (elevated plus maze test),[4],significantly rescued scopolamine-mediated increase of transfer latency time
same,time spent in the correct quadrant (water maze test),[5],markedly reverse this effect
"NCC1(CC(=O)O)CCCCC1 [Gabapentin, reference compound]",thermal hyperalgesia (heat pain threshold),"[3]; 100 mg/kg IP on Days 14, 21, and 27, during the experimental period",attenuated the thermal pain
"O=C(NO)c1ccc(CNc2cccc3ncccc23)cc1 [Compound 12, N-hydroxy-4-((quinolin-5-ylamino)methyl)benzamide]",transfer latency time (elevated plus maze test),[4],significantly rescued scopolamine-mediated increase of transfer latency time
same,time spent in the correct quadrant (water maze test),[5],markedly reverse this effect
"O=C(CCCCCCNC(=O)c1cnc(N(c2ccccc2)c2ccccc2Cl)nc1)NO [ACY241, Citarinostat, reference compound]",thermal hyperalgesia (heat pain threshold) vs vehicle,"[3]; 50 mg/kg PO qd x14, Days 14, 17, 21, and 24",successfully relieved the thermal hyperalgesia
